Experimental data from ChEMBL document CHEMBL1153512, “Anti-HBV and cytotoxic activities of pyranocoumarin derivatives” (Bioorg Med Chem, 2009).
Converted amounts (≈) assume the structure as drawn.

Tests used:
[1] = Cytotoxicity against human KBVIN cells after 3 days by sulforhodamine B assay; assay type: functional, cell-based; conditions: 72 h
MCF7 = test: Cytotoxicity against human MCF7 cells after 3 days by sulforhodamine B assay; assay type: functional, cell-based; conditions: MCF7, 72 h
Hepatitis B virus [2] = test: Antiviral activity against Hepatitis B virus infected in human […] cells assessed as suppression of viral surface antigen production after 48 hrs by enzyme immunoassay; assay type: functional, organism-based
A549 = test: Cytotoxicity against human A549 cells after 3 days by sulforhodamine B assay; assay type: functional, cell-based; conditions: A549, 72 h
KB = test: Cytotoxicity against human KB cells after 3 days by sulforhodamine B assay; assay type: functional, cell-based; conditions: 72 h
Hepatitis B virus [3] = test: Antiviral activity against Hepatitis B virus infected in human […] cells assessed as suppression of viral surface antigen production upto 15 uM after 48 hrs by enzyme immunoassay; assay type: functional, organism-based

CCC(C)(C)c1c2c(c(O)c3ccc(=O)oc13)C(=O)CC(C)(C)O2
EC50 [1]: 2.87 µg/mL (≈ 8.69 µM) | EC50 (MCF7): > 20 µg/mL | EC50 (Hepatitis B virus [2]): 1.14 µM | EC50 (A549): 19.7 µg/mL (≈ 59.7 µM) | EC50 (KB): 19.5 µg/mL (≈ 59 µM)

CCC(C)(C)c1cc2c(OC)c3c(c(C(C)(C)CC)c2oc1=O)OC(C)(C)CC3
EC50 (Hepatitis B virus [2]): 6.6 µM

C=CC(C)(C)c1cc2c(OC)c3c(c(C(C)(C)C=C)c2oc1=O)OC(C)(C)C=C3
EC50 (Hepatitis B virus [3]): Not Active

COc1c2c(c(C(C)(C)C3CO3)c3oc(=O)ccc13)OC(C)(C)CC2=O (stereo not given)
EC50 (Hepatitis B virus [3]): Not Active

CCC(C)(C)c1c2c(c(OC)c3ccc(=O)oc13)CCC(C)(C)O2
EC50 [1]: 10.2 µg/mL (≈ 30.7 µM) | EC50 (MCF7): > 20 µg/mL | EC50 (Hepatitis B virus [2]): 1.63 µM | EC50 (A549): > 20 µg/mL | EC50 (KB): 11.5 µg/mL (≈ 34.9 µM)

CC1(C)CC(=O)c2c(c(C(C)(C)C3CO3)c3oc(=O)ccc3c2O)O1 (stereo not given)
EC50 [1]: 2.71 µg/mL (≈ 7.87 µM) | EC50 (MCF7): > 20 µg/mL | EC50 (Hepatitis B virus [3]): Not Active | EC50 (A549): > 20 µg/mL | EC50 (KB): > 20 µg/mL

COc1c2c(c(C(C)(C)C3CO3)c3oc(=O)c(C(C)(C)C4CO4)cc13)OC(C)(C)C1OC21 (stereo not given)
EC50 (Hepatitis B virus [3]): Not Active

CCC(C)(C)c1cc2c(O)c3c(c(C(C)(C)CC)c2oc1=O)OC(C)(C)CC3
EC50 [1]: 7.73 µg/mL (≈ 20 µM) | EC50 (MCF7): 17.7 µg/mL (≈ 45.9 µM) | EC50 (Hepatitis B virus [3]): Not Active | EC50 (A549): 12.2 µg/mL (≈ 31.6 µM) | EC50 (KB): 8.21 µg/mL (≈ 21.2 µM)

C=CC(C)(C)c1cc2c(OC)c3c(c(C(C)(C)C=C)c2oc1=O)OC(C)(C)C1OC31 (stereo not given)
EC50 [1]: 6.12 µg/mL (≈ 14.9 µM) | EC50 (MCF7): 11.4 µg/mL (≈ 27.8 µM) | EC50 (Hepatitis B virus [2]): 4.56 µM | EC50 (A549): 11.8 µg/mL (≈ 28.7 µM) | EC50 (KB): 6.5 µg/mL (≈ 15.8 µM)

COc1c2c(cc3oc(=O)ccc13)OC(C)(C)CC2
EC50 (Hepatitis B virus [3]): Not Active

COc1c2c(c(C(C)(C)C3CO3)c3oc(=O)ccc13)OC(C)(C)C1OC21 (stereo not given)
EC50 (Hepatitis B virus [3]): Not Active

C=CC(C)(C)c1c2c(c(OC)c3ccc(=O)oc13)C1OC1C(C)(C)O2 (stereo not given)
EC50 (Hepatitis B virus [2]): 5.5 µM

C=CC(C)(C)c1c2c(c(OC)c3ccc(=O)oc13)C(=O)CC(C)(C)O2
EC50 (Hepatitis B virus [2]): 11.2 µM

COc1c2c(cc3oc(=O)ccc13)OC(C)(C)C1OC21 (stereo not given)
EC50 (Hepatitis B virus [3]): Not Active

CCC(C)(C)c1c2c(c(O)c3ccc(=O)oc13)CCC(C)(C)O2
EC50 [1]: 9.11 µg/mL (≈ 28.8 µM) | EC50 (MCF7): 16.3 µg/mL (≈ 51.6 µM) | EC50 (Hepatitis B virus [2]): 1.34 µM | EC50 (A549): 8.84 µg/mL (≈ 27.9 µM) | EC50 (KB): 9.25 µg/mL (≈ 29.2 µM)

CCC(C)(C)c1c2c(c(OC)c3ccc(=O)oc13)C(=O)CC(C)(C)O2
EC50 [1]: 13 µg/mL (≈ 37.9 µM) | EC50 (MCF7): > 20 µg/mL | EC50 (Hepatitis B virus [2]): 5.35 µM | EC50 (A549): > 20 µg/mL | EC50 (KB): > 20 µg/mL

C=CC(C)(C)c1cc2c(O)c3c(c(C(C)(C)C=C)c2oc1=O)OC(C)(C)C=C3 [CLAUSARIN]
EC50 [1]: 1.59 µg/mL (≈ 4.18 µM) | EC50 (MCF7): 7.96 µg/mL (≈ 20.9 µM) | EC50 (Hepatitis B virus [3]): Not Active | EC50 (A549): 2.98 µg/mL (≈ 7.83 µM) | EC50 (KB): 1.61 µg/mL (≈ 4.23 µM)

C=CC(C)(C)c1c2c(c(OC)c3ccc(=O)oc13)C=CC(C)(C)O2 [DENTATIN]
EC50 [1]: 14.7 µg/mL (≈ 45.1 µM) | EC50 (MCF7): > 20 µg/mL | EC50 (Hepatitis B virus [2]): 1.64 µM | EC50 (A549): > 20 µg/mL | EC50 (KB): 13.3 µg/mL (≈ 40.6 µM)

C=CC(C)(C)c1c2c(c(O)c3ccc(=O)oc13)C=CC(C)(C)O2 [NORDENTATIN]
EC50 [1]: 9.96 µg/mL (≈ 31.9 µM) | EC50 (MCF7): 17.3 µg/mL (≈ 55.4 µM) | EC50 (Hepatitis B virus [2]): 6.38 µM | EC50 (A549): 8.7 µg/mL (≈ 27.9 µM) | EC50 (KB): 9.63 µg/mL (≈ 30.8 µM)

COc1c2c(cc3oc(=O)ccc13)OC(C)(C)C=C2 [XANTHOXYLETIN]
EC50 (Hepatitis B virus [3]): Not Active
